Test system: astrocytes
Test: Lysosomal pH detection (DND-189 fluorescence)
Format: cell-based

Structure (SMILES): O=S(=O)(NCCNC/C=C/c1ccc(Br)cc1)c1cccc2cnccc12 [H-89]
- lysosomal pH (DND-189 fluorescence), co-treatment with PKA inhibitor (BafA1 + AMX + H-89): abolished the lysosomal acidification effect of AMX

Structure (SMILES): CO/C1=C\C(C)=C\[C@@H](C)[C@@H](O)[C@@H](C)C/C(C)=C/C=C/[C@H](OC)[C@@H]([C@@H](C)[C@@H](O)[C@H](C)[C@@]2(O)C[C@@H](O)[C@H](C)[C@@H](C(C)C)O2)OC1=O [bafilomycin A1]
- lysosomal pH (DND-189 fluorescence) (100 nM BafA1, 1-hour exposure): markedly alkalinized lysosomes

Structure (SMILES): Nc1ncnc2c1ncn2[C@@H]1O[C@@H]2COP(=O)(O)O[C@H]2[C@H]1O [cAMP, cyclic adenosine monophosphate]
- lysosomal pH (DND-189 fluorescence), reversal of BafA1 effect (300 μM cAMP with 100 nM BafA1): effectively reversed BafA1-induced alkalization

Source: publication PMC12320245 (International Journal of Biological Sciences, 2025)
